The source of these data is patent publication US8067423B2, “Polymorphs of dasatinib isopropyl alcohol and process for preparation thereof” (Teva Pharmaceutical Industries Ltd., priority 2007, dated 2011).

Type in all cases: physicochemical
Data set [1] can be described thus: Slurry of form N-6 in methanol: conversion to form B, solid phase analyzed by PXRD. As to conditions: for content of form B in the recovered solid (PXRD): form N-6 75 mg slurried in 1 ml methanol, filtered, dried on air. On the procedure:
(§1) XRD diffraction was performed on X-Ray powder diffractometer: Philips X'pert Pro powder diffractometer, CuKα radiation, λ=1.5418 Å. X'Celerator detector active length (2 theta)=2.122°, laboratory temperature 22-25° C. Zero background sample holders. Prior to analysis the samples were gently ground by means of mortar and pestle in order to obtain a fine powder. The ground sample was adjusted into a cavity of the sample holder and the surface of the sample was smoothed by means of a cover glass.
Dasatinib (form N-6, 75 mg) was put into vial and 1 ml of methanol was added. The slurry was then left at 0° C. for 2 days. The solid phase was filtered off and left to dry on air.
Dasatinib (form N-6, 75 mg) was put into vial and 1 ml of methanol was added. The slurry was then left at 20° C. for 2 days respectively. The solid phase was filtered off and left to dry on air.

Data set [2] can be described thus: Heating of form A3 on oil bath up to 208° C., MS check. As to conditions: 200 mg heated gradually up to 208° C. at final 0.7 Pa for about 15 min. Here is the method:
Dasatinib (200 mg, form A3) was heated on oil bath gradually up to 208° C. at final 0.7 Pa for about 15 min.

Data set [3] is described as follows: Blend with excipients pressed to a tablet, analyzed by PXRD. As to conditions: 70 mg form A3 with lactose monohydrate, magnesium stearate, microcrystalline celulose, hydroxypropylmethyl celulose. Here is the method:
as §1

For `Cc1nc(Nc2ncc(C(=O)Nc3c(C)cccc3Cl)s2)cc(N2CCN(CCO)CC2)n1` [form N-6, dasatinib], the “content of form B in the recovered solid (PXRD)” value is reported as “about 10%” in data set [1] (left at 0° C. for 2 days) and “about 1%” in data set [1] (left at 20° C. for 2 days). The “polymorphic conversion on slurrying” value in data set [1] (slurried at about 20° C. to about 0° C. for 2 days) is recorded as “converted to form B”.
With `Cc1nc(Nc2ncc(C(=O)Nc3c(C)cccc3Cl)s2)cc(N2CCN(CCO)CC2)n1` [form A3, dasatinib], in data set [2], the “chemical change on heating (MS)” value is recorded as “without any chemical change” and the sublimation on heating entry is reported as “None sublimation was observed”. The “crystalline form found in the pressed tablet (PXRD)” value in data set [3] is listed as “belonging to form A3”.
With `Cc1nc(Nc2ncc(C(=O)Nc3c(C)cccc3Cl)s2)cc(N2CCN(CCO)CC2)n1` [form B, dasatinib], the “stability of the crystalline form” value in data set [1] (at a temperature of about 20° C. and below) is on record as “relatively stable”.
